From patent publication US20180099931A1 (AbbVie S.à.r.l., priority 2016, published 2018)
Where two headings read alike, the source gives them in different places.

Target: T1, F508delCFTR (Homo sapiens, UniProt P13569, DEL508-508)
T1 construct: expressed in transfected cells; host or cells: CFBE41o- human lung-derived epithelial cells (CFBE4lo-F508delCFTR-HRP), doxycycline-inducible
Assay: Cell Surface Expression-Horse Radish Peroxidase (CSE-HRP) Assay;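 on Maximum % activity (with co-corrector): co-corrector and positive control are both the same reference corrector at 2 µM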;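 on Maximum % activity (without co-corrector): percent of the 2 µM on-plate positive control corrector response above DMSO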
Format: cell-based
Conditions: for Emax / Maximum % activity (with co-corrector): maximum at any tested concentration, normalized to on-plate positive control; for Emax: read-out: Maximum % activity (without co-corrector)
Description: Cell Surface Expression-Horse Radish Peroxidase (CSE-HRP) Assay;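 on Maximum % activity (with co-corrector): co-corrector and positive control are both the same reference corrector at 2 µM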;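 on Maximum % activity (without co-corrector): percent of the 2 µM on-plate positive control corrector response above DMSO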
The development was achieved by expressing the F508delCFTR mutation along with a horseradish peroxidase (HRP) in the fourth exofacial loop, and then measuring the HRP activity using luminescence readout from these cells, CFBE4lo-F508delCFTR-HRP, that were incubated overnight with the test corrector compounds, either without or with the co-corrector. […] The test compounds were then added either without or with a co-corrector at the required concentrations and further incubated for 18-24 hours at 33° C. The highest concentration tested was 20 μM with an 8-point concentration response curve using a 3-fold dilution in both the test compound without or with the co-corrector. Three replicate plates were run to determine one EC50. All plates contained negative controls (dimethyl sulfoxide, DMSO) and positive control (2 μM of 3-[(2R,4R)-4-({[1-(2,2-difluoro-1,3-benzodioxol-5-yl)cyclopropyl]carbonyl}amino)-7-methoxy-3,4-dihydro-2H-chromen-2-yl]benzoic acid) as well as on-plate concentration response of the positive control. […] The raw counts from the experiment were analyzed using Accelrys® Assay Explorer v3.3.
1−[3*SDPositive Control+3*SDNegative Control/Absolute(MeanPositive Control−MeanNegative Control)]
wherein “SD” is standard deviation.
The % activity measured at each of the 8 test concentrations of the test compound added either without or with a co-corrector (2 μM of 3-[(2R,4R)-4-({[1-(2,2-difluoro-1,3-benzodioxol-5-yl)cyclopropyl]carbonyl}amino)-7-methoxy-3,4-dihydro-2H-chromen-2-yl]benzoic acid) was normalized to the on-plate positive control using the following formulae:
% activity(Test compound without co-corrector)=[(test compound without co-corrector response−DMSO response)/(positive control response−DMSO response)]*100
% activity(Test compound with co-corrector)=[(test compound with co-corrector response−DMSO response)/(positive control response−DMSO response)]*100
The maximum % activity achieved for the test compound either without or with a co-corrector at any tested concentration is presented in Table 4 along with the respective EC50's calculated using the following general sigmoidal curve with variable Hill slope equation (described as Model 42 in the Accelrys® Assay Explorer v3.3 software):
General sigmoidal curve with concentration, response, top, bottom, EC50 and Hill slope. This model describes a sigmoidal curve with an adjustable baseline, a. The equation can be used to fit curves where response is either increasing or decreasing with respect to the independent variable, “x”.
“x” is a concentration of drug under test. “y” is the response. “a” is the maximum response, and “d” is the minimum response “c” is the inflection point (EC50) for the curve. That is, “y” is halfway between the lower and upper asymptotes when x=c. “b” is the slope-factor or Hill coefficient. The sign of b is positive when the response increases with increasing dose and is negative when the response decreases with increasing dose (inhibition).

[1] = test compound without co-corrector
[2] = test compound without co-corrector, read-out: EC50 (without co-corrector)
[3] = with co-corrector (2 μM of 3-[(2R,4R)-4-({[1-(2,2-difluoro-1,3-benzodioxol-5-yl)cyclopropyl]carbonyl}amino)-7-methoxy-3,4-dihydro-2H-chromen-2-yl]benzoic acid)
[4] = with co-corrector (2 μM of 3-[(2R,4R)-4-({[1-(2,2-difluoro-1,3-benzodioxol-5-yl)cyclopropyl]carbonyl}amino)-7-methoxy-3,4-dihydro-2H-chromen-2-yl]benzoic acid), read-out: EC50 (with co-corrector)
[5] = CSE-HRP, test compound without co-corrector, read-out: EC50 (without co-corrector)
[6] = CSE-HRP, with co-corrector (2 μM of 3-[(2R,4R)-4-({[1-(2,2-difluoro-1,3-benzodioxol-5-yl)cyclopropyl]carbonyl}amino)-7-methoxy-3,4-dihydro-2H-chromen-2-yl]benzoic acid), read-out: EC50 (with co-corrector)
[7] = CSE-HRP, with co-corrector (2 μM)

T1 sequence (P13569 with tags, fused parts or gaps DEL508-508): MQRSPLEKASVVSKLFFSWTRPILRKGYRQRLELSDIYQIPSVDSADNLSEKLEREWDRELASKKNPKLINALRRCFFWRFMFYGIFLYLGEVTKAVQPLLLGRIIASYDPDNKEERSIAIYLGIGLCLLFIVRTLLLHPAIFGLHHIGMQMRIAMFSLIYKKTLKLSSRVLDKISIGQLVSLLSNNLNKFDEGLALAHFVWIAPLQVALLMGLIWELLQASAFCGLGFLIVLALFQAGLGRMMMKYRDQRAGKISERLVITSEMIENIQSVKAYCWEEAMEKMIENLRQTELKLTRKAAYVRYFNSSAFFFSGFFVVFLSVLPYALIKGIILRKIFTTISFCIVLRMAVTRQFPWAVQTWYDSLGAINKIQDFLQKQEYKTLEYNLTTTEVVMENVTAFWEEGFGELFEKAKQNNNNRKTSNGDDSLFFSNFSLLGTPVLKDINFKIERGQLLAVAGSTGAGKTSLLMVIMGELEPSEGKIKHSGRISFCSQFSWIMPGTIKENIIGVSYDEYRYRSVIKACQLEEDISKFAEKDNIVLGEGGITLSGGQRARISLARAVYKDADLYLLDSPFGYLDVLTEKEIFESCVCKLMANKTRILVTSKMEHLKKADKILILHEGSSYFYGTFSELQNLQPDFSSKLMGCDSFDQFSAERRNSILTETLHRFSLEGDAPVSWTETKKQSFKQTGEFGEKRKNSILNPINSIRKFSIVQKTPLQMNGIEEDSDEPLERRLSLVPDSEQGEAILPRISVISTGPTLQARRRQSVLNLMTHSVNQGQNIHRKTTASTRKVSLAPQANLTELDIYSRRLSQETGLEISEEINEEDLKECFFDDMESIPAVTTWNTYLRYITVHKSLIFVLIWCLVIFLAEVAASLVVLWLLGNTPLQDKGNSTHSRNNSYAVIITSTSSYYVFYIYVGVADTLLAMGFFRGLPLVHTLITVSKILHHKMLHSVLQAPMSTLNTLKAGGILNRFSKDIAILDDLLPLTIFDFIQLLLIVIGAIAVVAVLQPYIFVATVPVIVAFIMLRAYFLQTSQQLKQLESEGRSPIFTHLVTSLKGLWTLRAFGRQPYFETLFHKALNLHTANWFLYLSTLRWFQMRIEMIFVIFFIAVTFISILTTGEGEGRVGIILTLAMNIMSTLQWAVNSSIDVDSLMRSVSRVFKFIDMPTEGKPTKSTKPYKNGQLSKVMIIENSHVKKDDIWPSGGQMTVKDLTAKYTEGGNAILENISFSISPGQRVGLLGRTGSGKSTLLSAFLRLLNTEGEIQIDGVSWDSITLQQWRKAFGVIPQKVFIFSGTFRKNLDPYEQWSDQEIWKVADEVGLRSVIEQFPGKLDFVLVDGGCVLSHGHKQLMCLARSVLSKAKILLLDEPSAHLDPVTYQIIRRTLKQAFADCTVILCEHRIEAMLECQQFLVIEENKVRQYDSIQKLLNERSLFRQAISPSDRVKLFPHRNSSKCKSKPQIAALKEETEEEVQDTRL

CC(C)OC(=O)N1[C@H](C(=O)O)[C@@H](C(C)(C)C)[C@H](NCC2CCCC(C(F)(F)F)C2)[C@@H]1c1ccccc1 (stereo partly drawn) [II-584]
Emax [1]: < 100% | EC50 [2]: 1000 to 10000 nM | Maximum % activity (with co-corrector) [3]: ++ (≥150 and <350) | EC50 [4]: 1000 to 10000 nM

COc1ccc(C(C)(C)C)cc1CN[C@H]1[C@H](C(C)(C)C)[C@@H](C(=O)O)N(C(=O)Cc2ccccc2Cl)[C@H]1c1ccccc1 [II-183]
EC50 [5]: < 1000 nM | EC50 [6]: < 1000 nM | Maximum % activity (with co-corrector) [7]: +++ (≥350) | Emax (CSE-HRP, without co-corrector): > 200%

COc1ccc(C(C)(C)C)cc1CN[C@H]1[C@H](C(C)(C)C)[C@@H](C(=O)O)N(C(=O)OC(C)C)[C@H]1c1cccnc1OC(C)C [III-229]
Emax [1]: > 200% | EC50 [2]: 1000 to 10000 nM | EC50 [4]: < 1000 nM | Maximum % activity (with co-corrector) (with co-corrector (2 μM)): +++ (≥350)

CCC(CC)C(=O)N1[C@H](C(=O)O)[C@@H](C(C)(C)C)[C@H](NCc2cc(C(C)(C)C)ccc2OC)[C@@H]1c1ccccc1 [II-329]
Emax [1]: > 200% | EC50 [2]: 1000 to 10000 nM | Maximum % activity (with co-corrector) [3]: +++ (≥350) | EC50 [4]: 1000 to 10000 nM

C=CCCOC(=O)N1[C@H](C(=O)O)[C@@H](C(C)(C)C)[C@H](NCc2cc(C(C)(C)C)ccc2OC)[C@@H]1c1ccccc1 [II-387]
Emax [1]: > 200% | EC50 [2]: 1000 to 10000 nM | Maximum % activity (with co-corrector) [3]: +++ (≥350) | EC50 [4]: 1000 to 10000 nM

COc1ccc(C(C)(C)C)cc1CN[C@H]1[C@H](C23CC(C2)C3)[C@@H](C(=O)O)N(C(=O)OC(C)C)[C@H]1c1cccnc1N(C)C [Example 71, (2S,3S,4S,5S)-3-(bicyclo[1.1.1]pentan-1-yl)-4-{[(5-tert-butyl-2-methoxyphenyl)methyl]amino}-5-[2-(dimethylamino)pyridin-3-yl]-1-{[(propan-2-yl)oxy]carbonyl}pyrrolidine-2-carboxylic acid]
EC50 [2]: 1000 to 10000 nM | EC50 [4]: 1000 to 10000 nM | Maximum % activity (with co-corrector) (with co-corrector (2 μM)): +++ (≥350) | Emax (without co-corrector): > 200%

COc1ccc(C(C)(C)C)cc1CN[C@H]1[C@H](C(C)(C)C)[C@@H](C(=O)O)N(C(=O)C(OC)C(C)(C)C)[C@H]1c1ccccc1 (relative stereo) [II-297]
EC50 [5]: 1000 to 10000 nM | EC50 [6]: 1000 to 10000 nM | Maximum % activity (with co-corrector) [7]: +++ (≥350) | Emax (CSE-HRP, without co-corrector): < 100%

COc1ncc(C2CCC2)cc1CN[C@H]1[C@H](C(C)(C)C)[C@@H](C(=O)O)N(C(=O)C2Cc3ccccc3CO2)[C@H]1c1ccccc1 (stereo partly drawn) [Example I-206]
EC50 [2]: 1000 to 10000 nM | EC50 [4]: 1000 to 10000 nM | Maximum % activity (with co-corrector) (with co-corrector (2 μM)): +++ (≥350) | Emax (without co-corrector): 100 to 200%

Cc1cc(C(F)(F)F)cc(N[C@H]2[C@H](C(C)(C)C)[C@@H](C(=O)O)N(C(=O)[C@H]3CCCCO3)[C@H]2c2cccnc2N(C)C)n1 [III-216]
Emax [1]: < 100% | EC50 [2]: 1000 to 10000 nM | EC50 [4]: 1000 to 10000 nM | Maximum % activity (with co-corrector) (with co-corrector (2 μM)): ++ (≥150 and <350)

COc1ccc(C(C)(C)C)cc1CN[C@H]1[C@H](C(C)(C)C)[C@@H](C(=O)O)N(C(=O)[C@@H]2C[C@H]3CC[C@@H]2O3)[C@H]1c1cccnc1OC (relative stereo) [II-522]
Emax [1]: < 100% | EC50 [2]: 1000 to 10000 nM | Maximum % activity (with co-corrector) [3]: +++ (≥350) | EC50 [4]: 1000 to 10000 nM

COc1ccc(C(C)(C)C)cc1CN[C@H]1[C@H](C(C)(C)C)[C@@H](C(=O)O)N(C(=O)C2(C)CCc3ccccc32)[C@H]1c1ccccc1 (stereo partly drawn) [II-368]
Emax [1]: 100 to 200% | EC50 [2]: 1000 to 10000 nM | Maximum % activity (with co-corrector) [3]: +++ (≥350) | EC50 [4]: 1000 to 10000 nM

COc1cc(C(F)(F)F)ccc1CN[C@@H]1[C@@H](C(C)(C)C)[C@H](C(=O)O)N(C(=O)C2CCCCC2)[C@@H]1c1ccccc1OC [III-95]
Emax [1]: < 100% | EC50 [2]: > 10000 nM | EC50 [4]: 1000 to 10000 nM | Maximum % activity (with co-corrector) (with co-corrector (2 μM)): ++ (≥150 and <350)

CCN(C)S(=O)(=O)NC(=O)[C@H]1[C@H](C(C)(C)C)[C@@H](Nc2cc(C(F)(F)F)cc(C)n2)[C@@H](c2ccccc2)N1C(=O)C1CCCCC1 (racemic) [III-55]
Emax [1]: < 100% | EC50 [2]: > 10000 nM | Maximum % activity (with co-corrector) [3]: ++ (≥150 and <350) | EC50 [4]: 1000 to 10000 nM

COc1ccc(C(F)(F)F)cc1CN[C@@H]1[C@@H](C(C)(C)C)[C@H](C(=O)O)N(C(=O)C2CCOC(C)(C)C2)[C@@H]1c1ccccc1N(C)C (mixture of isomers) [II-24]
EC50 [5]: 1000 to 10000 nM | EC50 [6]: 1000 to 10000 nM | Maximum % activity (with co-corrector) [7]: +++ (≥350) | Emax (CSE-HRP, without co-corrector): > 200%

COc1ccc(C(C)(C)C)cc1CN[C@H]1[C@H](C(C)(C)C)[C@@H](C(=O)O)N(C(=O)C(C)Sc2ccccc2)[C@H]1c1ccccc1 (stereo partly drawn) [II-325]
Emax [1]: > 200% | EC50 [2]: < 1000 nM | Maximum % activity (with co-corrector) [3]: +++ (≥350) | EC50 [4]: < 1000 nM

COc1ccc(C2CC3CCC2C3)cc1CN[C@H]1[C@H](C(C)(C)OC)[C@@H](C(=O)O)N(C(=O)C2CCCCC2)[C@H]1c1ccccc1 (stereo partly drawn) [Example I-117]
EC50 [2]: 1000 to 10000 nM | EC50 [4]: < 1000 nM | Maximum % activity (with co-corrector) (with co-corrector (2 μM)): +++ (≥350) | Emax (without co-corrector): > 200%

COc1ccc(C(C)(C)C)cc1CN[C@H]1[C@H](C(C)(C)C)[C@@H](C(=O)O)N(C(=O)C2(C)CCc3cc(C)ccc32)[C@H]1c1ccccc1 (stereo partly drawn) [Example I-147]
EC50 [2]: 1000 to 10000 nM | EC50 [4]: 1000 to 10000 nM | Maximum % activity (with co-corrector) (with co-corrector (2 μM)): +++ (≥350) | Emax (without co-corrector): < 100%

COc1ccc(Cl)cc1CN[C@@H]1[C@@H](C(C)(C)C)[C@H](C(=O)O)N(C(=O)OC(C)C)[C@@H]1c1ccccc1 (racemic) [Example I-12]
EC50 [2]: 1000 to 10000 nM | EC50 [4]: 1000 to 10000 nM | Maximum % activity (with co-corrector) (with co-corrector (2 μM)): +++ (≥350) | Emax (without co-corrector): > 200%

COc1ccc(C(C)(C)C)cc1CN[C@H]1[C@H](C(C)(C)C)[C@@H](C(=O)O)N(C(=O)C2CCOC(C(C)C)C2)[C@H]1c1ccccc1 (stereo partly drawn) [III-179]
Emax [1]: > 200% | EC50 [2]: 1000 to 10000 nM | EC50 [4]: < 1000 nM | Maximum % activity (with co-corrector) (with co-corrector (2 μM)): +++ (≥350)

COc1ccc(Br)cc1CN[C@H]1[C@H](C(C)(C)C)[C@@H](C(=O)O)N(C(=O)OC(C)C)[C@H]1c1ccccc1 [II-171]
EC50 [5]: 1000 to 10000 nM | EC50 [6]: 1000 to 10000 nM | Maximum % activity (with co-corrector) [7]: +++ (≥350) | Emax (CSE-HRP, without co-corrector): > 200%

CC(C)(C)[C@@H]1[C@@H](Nc2cc(Cl)ccn2)[C@@H](c2ccccc2)N(C(=O)C2CCCCC2)[C@H]1C(=O)O (racemic) [III-6]
Emax [1]: < 100% | EC50 [2]: > 10000 nM | Maximum % activity (with co-corrector) [3]: ++ (≥150 and <350) | EC50 [4]: 1000 to 10000 nM

COc1cc2c(cc1CN[C@@H]1[C@H](C(C)(C)C)[C@@H](C(=O)O)N(C(=O)OC(C)C)[C@H]1c1ccccc1)CCC2 [II-555]
Emax [1]: < 100% | EC50 [2]: 1000 to 10000 nM | Maximum % activity (with co-corrector) [3]: ++ (≥150 and <350) | EC50 [4]: 1000 to 10000 nM

COc1ccc(C(C)(C)C)cc1CN[C@H]1[C@H](C(C)(C)C)[C@@H](C(=O)O)N(C(=O)CC23CC(C2)C3)[C@H]1c1ccccc1 [II-177]
EC50 [5]: 1000 to 10000 nM | EC50 [6]: < 1000 nM | Maximum % activity (with co-corrector) [7]: +++ (≥350) | Emax (CSE-HRP, without co-corrector): > 200%

COc1cc(Cl)ccc1CN[C@@H]1[C@@H](C(C)(C)C)[C@H](C(=O)O)N(C(=O)C2CCCCC2)[C@@H]1c1ccccc1 (racemic) [III-30]
Emax [1]: > 200% | EC50 [2]: 1000 to 10000 nM | Maximum % activity (with co-corrector) [3]: +++ (≥350) | EC50 [4]: 1000 to 10000 nM
